EC50 data for one compound are collected here from PMC6385203, “Mutations in the palm domain disrupt modulation of acid-sensing ion channel 1a currents by neuropeptides” (Scientific Reports, 2019).

The test deals with T1, ASIC1a N416C (Homo sapiens, UniProt P78348, N416C).
T1 construct: expressed in transfected cells; host or cells: Xenopus laevis oocytes injected with cRNA
T1 sequence (P78348 1-528 N416C): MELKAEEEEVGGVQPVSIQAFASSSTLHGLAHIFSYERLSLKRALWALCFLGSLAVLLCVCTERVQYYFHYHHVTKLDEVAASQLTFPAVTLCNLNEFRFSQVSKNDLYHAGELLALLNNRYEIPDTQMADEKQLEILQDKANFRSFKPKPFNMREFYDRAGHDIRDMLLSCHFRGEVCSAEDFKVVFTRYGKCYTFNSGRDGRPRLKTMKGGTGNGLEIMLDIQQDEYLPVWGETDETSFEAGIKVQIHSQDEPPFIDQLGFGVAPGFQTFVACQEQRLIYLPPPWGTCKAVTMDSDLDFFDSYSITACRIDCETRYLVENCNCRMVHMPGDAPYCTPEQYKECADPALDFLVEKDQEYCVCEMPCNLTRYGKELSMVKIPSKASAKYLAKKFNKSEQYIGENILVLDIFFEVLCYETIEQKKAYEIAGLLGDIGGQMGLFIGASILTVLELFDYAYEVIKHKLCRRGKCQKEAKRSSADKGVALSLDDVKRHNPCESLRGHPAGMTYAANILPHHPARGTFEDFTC
The test is described as follows: Isust/Ipeak, TEVC in Xenopus oocytes. The format is cell-based. The following applies: pH5, n = 6–7, mean ± SEM, read-out: EC50 of FRRFa (Isust/Ipeak). The source says: To test the docking predictions, Cys mutants of palm and other proximal residues predicted to interact with the peptide were made. Since most of these residues are large and hydrophilic, the mutation to Cys changed the side chain properties substantially. Therefore, and because MTSET modification of many palm residues leads to currents with a large sustained component[22] that may render the measurement of FRRFa effects difficult, we exposed only the Cys mutants of hydrophobic residues (I307C and V414C) to 1 mM MTSET prior to the experiments with FRRFa. Asp212 was mutated to Gly (and not Cys), since we have previously observed that this residue is very sensitive to mutation, and that it is in most ASIC1a orthologs and even in several human ASIC1a clones a Gly. […] Due to the extremely small FRRFa-induced Isust/Ipeak ratio changes it was not possible to determine the EC50 of FRRFa on these mutants. To learn more about the nature of the Isust/Ipeak ratio increase by the N416C mutation, we measured the EC50 of FRRFa, which was 6 ± 2 μM (Fig. 6e, n = 6–7). […]
Electrophysiological measurements were performed 1–2 days after cRNA injection. Ion currents were recorded using two-electrode voltage-clamp at a holding potential of −60 mV with a Dagan TEV-200 amplifier (Minneapolis, MN). […] The amplitude of the sustained current was measured in the last two seconds of the pH5 perfusion. […]

Peptide text beside a SMILES is read from it.

With `N=C(N)NCCC[C@H](NC(=O)[C@H](CCCNC(=N)N)NC(=O)[C@@H](N)Cc1ccccc1)C(=O)N[C@@H](Cc1ccccc1)C(N)=O` [FRRFa, Phe-Arg-Arg-Phe-amide] (H-FRRF-NH2), the EC50 turned out to be 6 ± 2 µM.
